This experiment in a line: Standardized in-vitro tests of free radical / reactive species scavenging. Type of experiment: biochemical. The note with it: cage-like agent added to the solution before electrolysis. The text has this: Electrochemical Method to Produce and Encage Atomic Hydrogen: Electrolysis is a very efficient method of producing atomic hydrogen free electrons. In the past, though, it was not possible to separate oxidizing products produced at the anode and reducing products produced at the cathode. Recently, Japanese scientists used a semipermeable membrane to separate the cathode and anode areas, while not perturbing the flow of electrons delivered to the media. Such devices are, for instance, described in Y. Shiramizu et al., J. Electrochem. Soc., Vol. 143, 1632 (1996), the content of which is incorporated by reference in its entirety. In short, such devices consist of a chamber (usually made of noncorrosive material such as plastic) which is divided in two compartments with a water-tight semipermeable Nafion membrane (Dupont corporation). In each compartment, there is an electrode connected to a DC current source. […] Several parameters can be measured to ensure the efficiency of electrolysis. […] The efficiency of reduction of vitamin B12 can be tested by measuring UV/VISIBLE spectra and recording the absorbance at 387 nm, which is proportional to the amount of reduced vitamin B12, see G. Chithambarathanu Pillai and E. S. Gould, Inorganic Chemistry, Vol. 25, 3353 (1986), the content of which is incorporated by reference in its entirety. […]

cyanocobalamin [vitamin B12]: the “scavenging ability of the electrolyzed solution” value is “enhanced in a dose-dependent fashion”.

These data come from patent publication US6649193B1, “Prophylactic therapeutic and industrial antioxidant compositions enhanced with stabilized atomic hydrogen/free electrons and methods to prepare and use such compositions” (Henceforth Hibernia Inc., priority 1999, dated 2003).
